Each block holds one compound with its values, some of them ahead of it.
Assays:
[1] = target: T1, rhGAA (Homo sapiens, UniProt P10253); assay: Effect of compounds on rhGAA stability at neutral pH (residual α-glucosidase activity); assay type: biochemical; conditions: pH 7.0, 37° C., 0.1-10 mM, up to 48 hrs
T1 construct: purchased Genzyme Co, Cambridge, Mass., USA
Protocol: (§1) The standard activity assay of rhGAA was performed in 200 μl by using 5 μg of enzyme at 37° C. in 100 mM sodium acetate pH 4.0 and 20 mM 4NP-Glc. The reaction was started by adding the enzyme; after suitable incubation time (1-2 min) the reaction was blocked by adding 800 μL of 1 M sodium carbonate pH 10.2. Absorbance was measured at 420 nm at room temperature, the extinction coefficient to calculate enzymatic units was 17.2 mM^−1 cm^−1. One enzymatic unit is defined as the amount of enzyme catalyzing the conversion of 1 μmol substrate into product in 1 min, under the indicated conditions.
(§2) The effect of different pHs on the rhGAA stability was measured by preparing reaction mixtures containing 0.75 mg mL^−1 of enzyme in the presence of 50 mM citrate/phosphate (pH 3.0-7.0) at a certain pH. After incubations at 37° C., aliquots were withdrawn at the times indicated and the residual α-glucosidase activity was measured with the standard assay. To test the effect on the pH stability of rhGAA of chemical chaperons and of the other molecules, experiments were performed as described above by adding to the reaction mixtures the amounts of the different compounds indicated in the text.

[2] = target: T2, rh-alpha-Gal A in Fabry disease cell lines (Homo sapiens, UniProt P06280); assay: Correction by rh-alpha-Gal A in Fabry disease cell lines with chaperone; assay type: cell-based; conditions: three Fabry disease cell lines
T2 construct: purchased Genzyme Co, Cambridge, Mass., USA
T2 sequence (P06280 32-429): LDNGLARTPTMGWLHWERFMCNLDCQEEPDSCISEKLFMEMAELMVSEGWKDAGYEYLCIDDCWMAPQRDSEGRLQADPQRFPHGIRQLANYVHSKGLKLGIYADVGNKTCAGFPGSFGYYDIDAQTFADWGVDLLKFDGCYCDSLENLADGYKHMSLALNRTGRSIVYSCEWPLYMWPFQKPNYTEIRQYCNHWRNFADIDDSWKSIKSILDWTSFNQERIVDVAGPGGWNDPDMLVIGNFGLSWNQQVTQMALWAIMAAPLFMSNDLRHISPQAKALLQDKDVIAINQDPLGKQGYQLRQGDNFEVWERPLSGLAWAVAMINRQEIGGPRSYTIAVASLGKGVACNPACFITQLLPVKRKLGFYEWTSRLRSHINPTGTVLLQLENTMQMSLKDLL
Protocol: Fibroblasts from PD and Fabry disease patients were derived from skin biopsies after obtaining the informed consent of patients. Normal age-matched control fibroblasts were available in the laboratory of the Department of Pediatrics, Federico II University of Naples. All cell lines were grown at 37° C. with 5% CO2 in Dulbecco's modified Eagle's medium (Invitrogen, Grand Island, N.Y.) and 10% fetal bovine serum (Sigma-Aldrich, St Louis, Mo.), supplemented with 100 U/ml penicillin and […] streptomycin.

[3] = target: T1, rhGAA; assay: Thermal stability scans of rhGAA (SYPRO Orange); assay type: binding; conditions: pH 7.4; for Tm of rhGAA in the presence of chaperone: NAC 10 mM, DNJ 0.1 mM
Protocol: Thermal stability scans of rhGAA were performed as described in [Flanagan et al. 2009]. Briefly, 2.5 μg of enzyme were incubated in the absence and in the presence of NAC and DNJ, 10 mM and 0.1 mM, respectively, SYPRO Orange dye, and sodium phosphate 25 mM buffer, 150 mM NaCl, pH 7.4 or sodium acetate 25 mM buffer, 150 mM NaCl, pH 5.2. Thermal stability scans were performed at 1° C./min in the range 25-95° C. in a Real Time LightCycler (Bio-Rad). SYPRO Orange fluorescence was normalized to maximum fluorescence value within each scan to obtain relative fluorescence. Melting temperatures were calculated according to (Niesen et al. 2007).

[4] = target: T1, rhGAA; assay: Effect on rhGAA enzyme activity (standard activity assay); assay type: biochemical; conditions: three concentrations (FIG. 4)
Protocol: as §1

[5] = target: T3, rhGAA in PD fibroblasts (Homo sapiens, UniProt P10253); assay: Correction of GAA activity by rhGAA in PD fibroblasts with chaperone (synergy); assay type: cell-based; conditions: patient 3 (FIG. 7)
T3 construct: purchased Genzyme Co, Cambridge, Mass., USA
Protocol: To study the rhGAA uptake and correction of GAA activity in PD fibroblasts, the cells were incubated with […] rhGAA for 24 hours, in the absence or in the presence of 10 mM NAC. Untreated cells or were used for comparison. After the incubation the cells were harvested by trypsinization and disrupted by 5 cycles of freezing and thawing.
GAA activity was assayed by using the fluorogenic substrate 4-methylumbelliferyl-alpha-D-glucopyranoside (Sigma-Aldrich) according to a published procedure [Porto et al, 2009]. Briefly, 25 micrograms of protein were incubated with the fluorogenic substrate (2 mM) in 0.2 M acetate buffer, pH 4.0, for 60 minutes in incubation mixtures of 100 μl. The reaction was stopped by adding 700 μl of glycine-carbonate buffer, pH 10.7. Fluorescence was read at 365 nm (excitation) and 450 nm (emission) on a Turner Biosystems Modulus fluorometer. Protein concentration in cell homogenates was measured by the Bradford assay (Biorad, Hercules, Calif.).
To study GAA immunoreactive material, fibroblast extracts were subjected to western blot analysis. The cells were harvested, washed in phosphate-buffered saline, resuspended in water, and disrupted by five cycles of freeze-thawing. Equal amounts (20 μg protein) of fibroblast extracts were subjected to sodium dodecyl sulfate polyacrylamide gel electrophoresis and proteins were transferred to PVD membrane (Millipore, Billerica, Mass.). An anti-human GAA antiserum was used as primary antibody to detect GAA polypeptides; to detect β-actin, a monoclonal mouse antibody was used Immunoreactive proteins were detected by chemiluminescence (ECL, Amersham, Freiburg, Germany)
To study the distribution of AlexaFluor546 labeleld GAA, PD fibroblasts grown on coverslips were fixed using methanol, permeabilized using 0.1% saponin and locked with 0.01% saponin, 1% fetal bovine serum diluted in phosphate-buffered saline for 1 hour. The cells were incubated with the primary antibodies, with secondary antibodies in blocking solution and then mounted with vectashield mounting medium (Vector Laboratories, Burlingame, Calif.). Samples were examined with a Zeiss LSM 5 10 laser scanning confocal microscope. Authors used Argon/2 (458, 477, 488, and 514 nanometers) and HeNe1 (543 nanometers) excitation lasers, which were switched-on separately to reduce crosstalk of the two fluorochromes. The green and the red emissions were separated by a dichroic splitter (FT 560) and filtered (515-540-nm bandpass filter for green and >610-nm long pass filter for red emission). A threshold was applied to the images to exclude ˜99% of the signal found in control images.

[6] = Effect of pH on rhGAA stability; assay type: physicochemical
Protocol: as §1, §2

Compound: OCCS [2-mercapto-ethanol, reference compound]
stabilization of rhGAA at neutral pH [1]: did not prevent enzyme inactivation

Compound: N[C@@H](CS)C(=O)O [Cys, reference compound]
stabilization of rhGAA at neutral pH [1]: did not prevent enzyme inactivation

Compound: OC[C@H]1NC[C@H](O)[C@@H](O)[C@H]1O [DGJ, 1-deoxy-galactonojiirimycin, reference compound]
enhancement of correction by rh-alpha-Gal A [2]: largely enhanced

Compound: OC[C@H]1NC[C@H](O)[C@@H](O)[C@@H]1O [DNJ, 1-deoxy-nojiirimycin, reference compound]
Tm of rhGAA in the presence of chaperone [3]: 65.9±0.3 °C

Compound: O=C(O[C@@H]1Cc2c(O)cc(O)cc2O[C@@H]1c1cc(O)c(O)c(O)c1)c1cc(O)c(O)c(O)c1 [epigallo chatechingallate, epigallo catechingallate, reference compound]
enhancement of rhGAA in PD cultured fibroblasts [5]: did not enhance

Compound: rhGAA: recombinant human GAA (alglucosidase, Myozyme) from Genzyme, used for enzyme replacement therapy
rhGAA residual activity after 4 hours ([6]; pH 3.0 or 7.0, 37° C., 4 hours): approximately 50% | rhGAA residual activity after 16 hours ([6]; pH 3.0 or 7.0, 37° C., 16 hours): less than 10% | rhGAA stability at pH 5.0 ([6]; pH 5.0, 37° C., up to 24 hours): stable | Tm of rhGAA in the absence of chaperone [3]: 50.2±0.1 °C

Second part, the compound after the results:

stabilization of rhGAA at neutral pH [1]: did not prevent enzyme inactivation
Compound: NCC(=O)O [Gly, reference compound]

effect on the activity of the enzyme (rhGAA) [4]: no effect | stabilization of rhGAA at neutral pH [1]: remarkable stabilization
Compound: CC(=O)NCC(=O)O [NAG, N-acetyl glycine]

effect on the activity of the enzyme (rhGAA) [4]: no effect | stabilization of rhGAA at neutral pH [1]: remarkable stabilization
Compound: CC(=O)N[C@@H](CO)C(=O)O [NAS, N-acetyl serine]

Tm of rhGAA in the presence of chaperone [3]: 65.9±0.3 °C
Compound: CCCCN1C[C@H](O)[C@@H](O)[C@H](O)[C@H]1CO [NB-DNJ, N-butyl-deoxynojirimycin, reference compound]

stabilization of rhGAA at neutral pH [1]: did not prevent enzyme inactivation
Compound: N[C@@H](CO)C(=O)O [Ser, reference compound]

enhancement of rhGAA in PD cultured fibroblasts [5]: did not enhance
Compound: Oc1ccc(C=Cc2cc(O)cc(O)c2)cc1 [resveratrol, reference compound]
